# Experimental data as given in patent US20040170622A1, “Methods and compositions for modulating XBP-1 activity” (President and Fellows of Harvard College, priority 2002, published 2004).
# Where a SMILES comes first, the peptide text is derived from it. The star is where a group is joined. Cbz = O=C(OCc1ccccc1)*
# B1: dn-XBP: dominant negative XBP-1 containing the N-terminal 188 aa, lacking transactivation domain, retaining leucine zipper (protein)
# chain: MVVVAAAPSAATAAPKVLLLSGQPASGGRALPLMVPGPRAAGSEASGTPQARKRQRLTHLSPEEKALRRKLKNRVAAQTARDRKKARMSELEQQVVDLEEENHKLQLENQLLREKTHGLVVENQELRTRLGMDTLDPDEVPEVEAKGSGVRLVAGSAESAAGAGPVVTSPEHLPMDSDTVASSDSESD
# Legend:
# J558 myeloma cells = assay: Apoptosis of J558 myeloma cells (Annexin V staining); type: cell-based; conditions: for apoptosis, combination of Tm and MG-132: J558, 18 hrs, suboptimal concentrations
# Protocol: (A) BiP and CHOP induction was examined by northern blot analysis after treating NIH3T3 or J558 myeloma cells with either MG-132 (20 μM), Tm (10 μg/ml) or both. Cells were pretreated with MG-132 for 1 hr and then further treated with Tm for 4 hrs. Ethidium bromide staining of the gel is shown at the bottom. (B) Inhibition of caspase-12 processing by proteasome inhibitors. Processing of full-length caspase-12 was examined by Western blotting in J558 myeloma cells treated with thapsigargin (1 μM) or PIs (20 μM) during the indicated time periods. (C) Alteration in the ratio of XBP-1 protein species in J558 cells were treated with increasing amounts of MG-132 for 16 hrs. Cells undergoing apoptosis were counted by Annexin V staining. (D) Time course of the XBP-1s to XBP-1u shift. Cells were treated with MG-132 (1 μM) for the indicated times and XBP-1u and spliced protein levels and cell death determined. (E) Alteration in the ratio of XBP-1 species in the MM.1s human myeloma line. Cells were treated with PS-341 (8 nM) in a time course analysis and XBP-1 protein species quantified.
# (A) Synergistic effect of Tm and MG-132 on apoptosis. Annexin V positive cells were counted after treating J558 cells for 18 hrs with suboptimal concentrations of Tm and MG-132 as indicated. (B) J558-iXBP cells were generated by retroviral transduction of J558 cells with the U6 promoter based XBP-1 RNAi vector. (C) XBP-1 dependent gene expression in J558 cells that express control GFP, dn-XBP or iXBP-1 treated with Tm. Generation of dn-XBP-1 J558 cells by infection with a retrovirus containing dn-XBP cDNA inserted into the GFP-RV vector (N. N. lwakoshi et al., Nature Immunology 4, 321-329 (2003)). ERdj4, p58^IPK, BiP and CHOP gene expression were examined by Northern blot analysis. (D) Increased apoptosis in iXBP-1 and dn-XBP-1 expressing J558 cells. Cells were treated with the indicated amounts of Tm for 48 hrs and dead cells counted after Annexin V staining.
# Cells were stained with annexin V-PE (BD PharMingen, San Jose, Calif.) as recommended and analyzed on a FACScan flow cytometer (Becton Dickinson, San Jose, Calif.).
# UPR target genes = assay: UPR gene and XBP-1 protein expression in MEF cells (gene array, Northern, Western blot); type: cell-based, mouse; conditions: for induction of ERdj4 (XBP-1-dependent UPR target gene): XBP-1-deficient MEFs; for XBP-1u and XBP-1s protein induction: wt MEFs, 10 μM MG-132 or 10 μg/ml Tm, 6 hours
# Protocol: (A) XBP-1 locus in wild type and XBP-1^−/− MEF cells. Splicing of the mutant XBP-1 mRNA in XBP-1^−/− cells is shown. * represent termination codons. (B) Wild type and XBP-1^−/− MEF cells were untreated or treated with 10 μg/ml Tm for 6 hours. […] (C) Wild type and XBP-1^−/− MEF cells were treated with 10 μM MG-132 or 10 μg/ml Tm for 6 hours. XBP-1u and XBP-1s proteins were detected by Western blot analysis with anti-XBP-1 antibody.
# 293T and MEF cells derived from wild type and XBP-1^−/− embryos were cultured in DMEM supplemented with 10% fetal calf serum (Hyclone Laboratories). MEF-tet-off cells (Clontech) were maintained in the same media with the addition of 100 μg/ml G418 and 1 μg/ml doxycycline. XBP-1s inducible cells were obtained by transfecting MEF-tet-off cells with the TREhyg-XBP-1s plasmid and then selecting in the presence of 400 μg/ml hygromycin B. Several clones were tested for doxycycline-dependent XBP-1s expression, and one was selected for further experiments. MEF-dn-XBP cells were generated by transfecting MEF-tet-off cells with the TREhyg-dn-XBP plasmid. […] ATF6α and β knockdown MEF cells were generated by cotransfecting wild type MEF cells with U6-iATF6α and β and cmv-puromycin or transducing cells with retroviruses containing each RNAi vector.
# Total RNA was isolated from MEF cells with TRIZOL reagent (Invitrogen, Carlsbad, Calif.). cDNA synthesis, hybridization and laser scanning of the array were carried out at the Gene Array Technology Center (Brigham and Women's Hospital, Boston, Mass.) with MG-U74A GeneChips which had 6,000 functionally characterized sequences and 6,000 ESTs from the UniGene database (Affymetrix, Santa Clara, Calif.) as recommended by Affymetrix. Data analysis was performed using Affymetrix GeneChip 3.1 software under default parameter setting.
# Total RNA was prepared by using Trizol reagent, electrophoresed on 1.2% agarose, 6% formaldehyde gels and then transferred onto Genescreen Plus membrane (NEN). ^32P-radiolabeled probes were prepared with the RediPrime II labeling system (Amersham-Pharmacia). Template DNAs for the probes were cut out by using appropriate restriction enzymes from the cDNA-containing plasmid (XBP-1, 15-830 of the murine coding region) or EST clones from ATCC (CHOP, IMAGE:5863055; ERdj4, IMAGE: 1920927; p58^IPK probe A, IMAGE:9001935; p58^IPK probe B, IMAGE:2646147; ATF6α, IMAGE:4503659; MGP, IMAGE:4990627; EDEM, IMAGE:5324660; PDI-P5, IMAGE:2645183; RAMP4, IMAGE:3489738). Grp94 and Grp78 probes were kindly provided by R. J. Kaufman, Univ. of Michigan and the HEDJ probe the kind gift of L. Hendershot, St. Jude Children's Research Hospital, Memphis. Probe hybridization was performed with Ultrahyb buffer as recommended by the manufacturer (Ambion).
# 48 hours after transfection, 293T cells were washed twice with cold PBS and lysed in 1 ml lysis buffer (10 mM Tris pH7.4, 150 mM NaCl, 1% Triton X-100, 1 mM EDTA) containing a protease inhibitor cocktail tablet (Roche). Lysates were precleared by using protein A-agarose beads (Roche) for 1 hour and incubated with agarose conjugated anti-HA antibody (Santa Cruz) for overnight. The agarose beads were washed five times with the lysis buffer and resuspended in SDS-PAGE sample buffer. MEF cells were lysed in RIPA buffer (50 mM Tris pH 7.4, 150 mM NaCl, 1 mM EDTA, 1% Triton X-100, 1% sodium deoxycholate, 0.1% SDS). Lysates and immunoprecipitates were subjected to SDS-PAGE and transferred to Hybond P membrane (Amersham-Pharmacia).
Molecule,"apoptosis, combination of Tm and MG-132 (J558 myeloma cells)",apoptosis in J558 cells (J558 myeloma cells; agent alone),induction of ERdj4 (XBP-1-dependent UPR target gene) (UPR target genes),XBP-1u and XBP-1s protein induction (UPR target genes),"genes whose expression increased, of the total pool of 12,000 genes (UPR target genes; wt MEF cells, Tm 6 hours) [%]","apoptosis upon Tm treatment compared to control GFP-transduced cells (J558 myeloma cells; transduced J558 cells, Tm 48 hrs)","cell proliferation or viability at baseline (J558 myeloma cells; transduced J558 cells, no Tm)"
CC(C)C[C@@H](C=O)NC(=O)[C@H](CC(C)C)NC(=O)[C@H](CC(C)C)NC(=O)OCc1ccccc1 [MG-132] (Cbz-Leu-Leu-Leu-aldehyde),synergistically induced apoptosis,induced apoptosis in J558 cells,normal induction of ERdj4,induced both XBP-1u and XBP-1s proteins,,,
tunicamycin [Tm],synergistically induced apoptosis,,not induced at all,induced both XBP-1u and XBP-1s proteins,2.8,,
B1,,,,,,significantly increased apoptosis,No effect on cell proliferation or viability
